# Experimental data: patent publication US20120058112A1, “ANTIBODIES” (priority 2009, published 2012)
# Legend:
# IGF1R = experiment: Total IGF1R level in xenograft tumors (western blot / ELISA); format: in vivo, nu/nu mice
# Procedure: (§1) Methods: Total protein (500 microgram) from xenograft samples was isolated at the end of the efficacy study (4 weeks after indicated doses). Samples from 6 independent tumors were analyzed for east treatment. The proteins were western blotted and visualized as described previously (See FIG. 2).
# lung cancer cell lines = experiment: Proliferation assay (Cyquant DNA content), adherent (2D) conditions; format: cell-based; conditions: adherent (2D) growth conditions
# Procedure: Summary: To test the functional effect of inhibiting both EGFR & IGFIR signaling, the growth inhibition under adherent (2D) and non adherent (3D) conditions were evaluated. […] In order to test the effect of this combination under 3D non-adherent conditions, the inventors developed an ultra low attachment plate based proliferation assay.
# Methods: Cells (˜3×10̂3) were seeded in adherent or non-adherent (ultra-low attachment plates; Corning) 96 well plates. […] The media and drugs were slowly replaced every 3 days and at the end of the assay (as indicated) plates were harvested and DNA content was measured using Cyquant assays as described by the manufacturer. The intrinsic growth was calculated based on the increase in DNA content from Day 1 to the end of the assay.
# [1] = test system: PI3K pathway (P-AKT, PS6K, PS6RP); experiment: PI3K pathway western blot in xenograft tumors; design: species or system nu/nu mice; conditions: following MK-0646 treatment, previous in vivo data
# Procedure: as §1
# NSCLC [2] = conditions: standard chemotherapy plus EGFR inhibitor; cited from earlier work
# [3] = cited from earlier work
# NSCLC [4] = conditions: cancer no longer responding to chemotherapy; cited from earlier work
# NSCLC [5] = conditions: phase II, previously treated NSCLC patients, 2004; cited from earlier work
# [6] = test system: carcinoma which does not express the EGF receptor; conditions: mouse, in vivo; cited from earlier work
# [7] = test system: human mammary carcinoma which expresses EGFR; conditions: mouse, in vivo; cited from earlier work
molecule,measurement,setting,value
MK-0646: humanized antibody that binds IGF-1R as well as the IR/IGF-1 hybrid receptor,total levels of IGF1R,"IGF1R; compared to vehicle or Erlotinib alone, FIG. 6",able to reduce the total levels of IGF1R
same,IGF1R receptor level,"IGF1R; previous in vivo data, NCI-H2122 xenograft",down regulation
same,growth inhibition,lung cancer cell lines,no significant growth inhibition
same,P13K pathway,[1],inhibition was also observed
C#Cc1cccc(Nc2ncnc3cc(OCCOC)c(OCCOC)cc23)c1.Cl [Erlotinib],outcome versus chemotherapy alone,NSCLC [2],did no better
same,overall survival benefit,[3]; in vivo,did not help patients live any longer overall
same,time to progression,[3]; placebo group 4.9 months,5.1 months
same,median survival,[3]; placebo group 10.5 months,10.6 months
same,survival versus placebo,NSCLC [4],about two months longer
same,participants whose tumors responded to treatment,NSCLC [5],12%
O=CN/C=C/c1cc(O)ccc1O [erbstatin],tumor growth,[6],without effect
same,tumor growth,[7],selectively attenuates the growth
COc1cc2ncnc(Nc3ccc(F)c(Cl)c3)c2cc1OCCCN1CCOCC1 [gefitinib],outcome versus chemotherapy alone,NSCLC [2],did no better
